# According to article PMC6934184, “Selective DNA-PKcs inhibition extends the therapeutic index of localized radiotherapy and chemotherapy” (The Journal of Clinical Investigation, 2019):
# Biological target: T1, CDK2/cyclin A1 (Homo sapiens, UniProt P24941)
# T1 construct: purchased Thermo Fisher Scientific (Life Technologies) SelectScreen
# Experiment: SelectScreen LanthaScreen
# Type: binding
# Conditions: 1 µM
# Outline: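 SelectScreen broad panel; activity (Z'LYTE, Adapta) plus binding formats. ATP: Km app for CSF1R Z'LYTE; 10 for CAMK1 Adapta. Readout = % per kinase.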
structure (smiles),measurement,value
CN(C(=O)CN1CCOCC1)c1ccc2sc3c(-c4cccc5c(=O)cc(N6CC7CCC(C6)O7)oc45)cccc3c2c1 [NU5455],% displacement,-1.6%
